Experimental data as given in patent US20050009776A1, “Method of treating atrial fibrillation or atrial flutter” (Aderis Pharmaceuticals, Inc., priority 2003, published 2005).
Marks after values point to notes of the source that are not given here.

Experiments:
Format in all cases: in vivo, human
[1] = tested on: atrioventricular (AV) node; test: Example 3: Phase I dose escalation, effects on AV node function
Method: This study for determining the effects of DTI-0009 on atrioventricular (AV) node function enrolled 63 patients (19 women and 44 men; mean age 54) who were scheduled for a procedure other than AV node or slow pathway ablation. All patients had no greater than a first degree AV block and AV node Wenckebach Cycle Length of less than 500 msec. […] The study was a Phase I, multi-center, open-label, sequential dose escalation using DTI-0009 (0.25 μg/kg, 1.0 μg/kg, 2.5 μg/kg, 4.0 μg/kg, 10.0 μg/kg, and 25.0 μg/kg) or normal saline. Electrophysiologic studies (EPS) were performed at baseline, during infusion (20-30 min) and 10 minutes after discontinuation of DTI-0009 administration.

[2] = tested on: patients with atrial fibrillation; test: Example 4: placebo-controlled 15-minute i.v. infusion, heart rate and blood pressure in atrial fibrillation
Method: A double blind, placebo-controlled study was designed to establish the i.v. dose range of DTI-0009 that safely reduces heart rates in patients with atrial fibrillation. […] The patients' heart rates and blood pressures were measured periodically throughout the treatment period and for 75 and 80 minutes post-infusion, respectively. Safety assessments were made throughout the study and for up to three to seven days post-dose.

[3] = Example 5: pharmacokinetics and renal function markers of short i.v. infusions in healthy subjects
Method: A study was designed to determine the dose dependent pharmacokinetics (PK) of short i.v. infusions of DTI-0009 in healthy subjects. Ten healthy young volunteer (ages 21 to 35 years old) received a 30-minute infusion of 1 μg/kg DTI-0009, or 5 μg/kg DTI-0009 or saline on three different occasions. The subjects were hydrated by a saline infusion ([…]) for one hour prior to and five hours after the start of the drug infusion. Serial plasma and urine samples were taken over 24 hours to measure DTI-0009 concentrations (as well as glucuronide, in urine only), creatinine, sodium and potassium by validated methods. The following renal function markers were assessed over time: urinary flow rate (UF), creatinine clearance (CLCrea), sodium clearance (CLNa) and potassium clearance (CLK). Additionally, noncompartmental PK analysis was performed and instantaneous renal clearance (CLren^inst) was estimated as a function of UF and CLcrea.

## CCNC(=O)[C@H]1O[C@@H](n2cnc3c(NC4CCCC4)ncnc32)[C@H](O)[C@@H]1O [DTI-0009, N^6-cyclopentyl-5′-(N-ethyl)carboxamidoadenosine]
[1]; 4.0 μg/kg (n = 9), ns
  AERP Change from Baseline: +10 msec (ns)
  AH Interval Change from Baseline: +9 msec (ns)
  AVNERP Change from Baseline: +73 msec (ns)
  Wenkebach Cycle Length Change from Baseline: +60 msec (ns)
[1]; 4.0 μg/kg (n = 9), p = 0.008
  HR at 250 msec pacing Change from Baseline: −49 bpm
[1]; 10.0 μg/kg (n = 8), p = 0.001
  AVNERP Change from Baseline: +248 msec
  HR at 250 msec pacing Change from Baseline: −51 bpm
  Wenkebach Cycle Length Change from Baseline: +198 msec
[1]; 10.0 μg/kg (n = 8), p = 0.004
  AH Interval Change from Baseline: +24 msec
[1]; 10.0 μg/kg (n = 8), p = 0.035
  AERP Change from Baseline: -14 ms
[1]; 10.0 μg/kg dose
  complete heart block: occurred in one patient
[1]; 25.0 μg/kg (n = 2), ns
  AERP Change from Baseline: +10 msec (ns)
  AH Interval Change from Baseline: +14 msec (ns)
[1]; 25.0 μg/kg (n = 2), p = 0.004
  HR at 250 msec pacing Change from Baseline: −45 bpm
[1]; 25.0 μg/kg (n = 2), p = 0.013
  AVNERP Change from Baseline: +185 msec
[1]; 25.0 μg/kg (n = 2), p = 0.035
  Wenkebach Cycle Length Change from Baseline: +140 msec
[1]; 25.0 μg/kg, three patients dosed
  transient, severe, non-ischemic chest pain reported as serious adverse events: two of these patients
[1]; doses up to 2.5 μg/kg
  effects on AV node variables at low doses: negligible effects
[1]; up to a dose of 10.0 μg/kg
  tolerability: well tolerated
[2]; 2 μg/kg (11 patients), 30 minutes after start of infusion (BP 35 minutes, footnote c), Baseline 82.2
  DBP: 77.8^e mmHg
[2]; 2 μg/kg (11 patients), 30 minutes after start of infusion (BP 35 minutes, footnote c), Baseline 130.7
  SBP: 129.5^e mmHg
[2]; 2 μg/kg (n = 12), 5 minutes after start of infusion, Baseline 82.2
  DBP: 87.7 mmHg
[2]; 2 μg/kg (n = 12), 5 minutes after start of infusion, Baseline 129.9
  HR: 117.1^a bpm
[2]; 2 μg/kg (n = 12), 5 minutes after start of infusion, Baseline 130.7
  SBP: 136.6 mmHg
[2]; 2 μg/kg (n = 12), 15 minutes after start of infusion, Baseline 82.2
  DBP: 84.6 mmHg
[2]; 2 μg/kg (n = 12), 15 minutes after start of infusion, Baseline 129.9
  HR: 102.4^b bpm
[2]; 2 μg/kg (n = 12), 15 minutes after start of infusion, Baseline 130.7
  SBP: 134.4 mmHg
[2]; 2 μg/kg (n = 12), 30 minutes after start of infusion, Baseline 129.9
  HR: 112.1^a bpm
[2]; 4 μg/kg (8 patients), 30 minutes after start of infusion, Baseline 143.9
  HR: 115.1^a,d bpm
[2]; 4 μg/kg (n = 9), 5 minutes after start of infusion, Baseline 75.0
  DBP: 76.3 mmHg
[2]; 4 μg/kg (n = 9), 5 minutes after start of infusion, Baseline 132.1
  SBP: 127.4 mmHg
[2]; 4 μg/kg (n = 9), 5 minutes after start of infusion, Baseline 143.9
  HR: 114.9^a bpm
[2]; 4 μg/kg (n = 9), 15 minutes after start of infusion, Baseline 75.0
  DBP: 68.7 mmHg
[2]; 4 μg/kg (n = 9), 15 minutes after start of infusion, Baseline 132.1
  SBP: 132.8 mmHg
[2]; 4 μg/kg (n = 9), 15 minutes after start of infusion, Baseline 143.9
  HR: 100.1^b bpm
[2]; 4 μg/kg (n = 9), 30 minutes after start of infusion (BP 35 minutes, footnote c), Baseline 75.0
  DBP: 72.2 mmHg
[2]; 4 μg/kg (n = 9), 30 minutes after start of infusion (BP 35 minutes, footnote c), Baseline 132.1
  SBP: 122.0 mmHg
[2]; 6 μg/kg (n = 9), 5 minutes after start of infusion, Baseline 69.4
  DBP: 72.9 mmHg
[2]; 6 μg/kg (n = 9), 5 minutes after start of infusion, Baseline 122.1
  SBP: 126.8 mmHg
[2]; 6 μg/kg (n = 9), 5 minutes after start of infusion, Baseline 140.2
  HR: 117.1^a bpm
[2]; 6 μg/kg (n = 9), 15 minutes after start of infusion, Baseline 69.4
  DBP: 70.4 mmHg
[2]; 6 μg/kg (n = 9), 15 minutes after start of infusion, Baseline 122.1
  SBP: 126.8 mmHg
[2]; 6 μg/kg (n = 9), 15 minutes after start of infusion, Baseline 140.2
  HR: 100.4^b bpm
[2]; 6 μg/kg (n = 9), 30 minutes after start of infusion (BP 35 minutes, footnote c), Baseline 69.4
  DBP: 68.7 mmHg
[2]; 6 μg/kg (n = 9), 30 minutes after start of infusion (BP 35 minutes, footnote c), Baseline 122.1
  SBP: 115.4 mmHg
[2]; 6 μg/kg (n = 9), 30 minutes after start of infusion, Baseline 140.2
  HR: 114.4^a bpm
[2]; 8 μg/kg (n = 7), 5 minutes after start of infusion, Baseline 82.3
  DBP: 85.1 mmHg
[2]; 8 μg/kg (n = 7), 5 minutes after start of infusion, Baseline 131.6
  SBP: 141.4 mmHg
[2]; 8 μg/kg (n = 7), 5 minutes after start of infusion, Baseline 133.7
  HR: 101.4^a bpm
[2]; 8 μg/kg (n = 7), 15 minutes after start of infusion, Baseline 82.3
  DBP: 80.3 mmHg
[2]; 8 μg/kg (n = 7), 15 minutes after start of infusion, Baseline 131.6
  SBP: 145.3 mmHg
[2]; 8 μg/kg (n = 7), 15 minutes after start of infusion, Baseline 133.7
  HR: 90.9^a bpm
[2]; 8 μg/kg (n = 7), 30 minutes after start of infusion (BP 35 minutes, footnote c), Baseline 82.3
  DBP: 77.4 mmHg
[2]; 8 μg/kg (n = 7), 30 minutes after start of infusion (BP 35 minutes, footnote c), Baseline 131.6
  SBP: 134.4 mmHg
[2]; 8 μg/kg (n = 7), 30 minutes after start of infusion, Baseline 133.7
  HR: 96.3^a bpm
[2]; 10 μg/kg (n = 8), 5 minutes after start of infusion, Baseline 75.9
  DBP: 83.1 mmHg
[2]; 10 μg/kg (n = 8), 5 minutes after start of infusion, Baseline 128.3
  SBP: 140.6 mmHg
[2]; 10 μg/kg (n = 8), 5 minutes after start of infusion, Baseline 142.5
  HR: 110.0^b bpm
[2]; 10 μg/kg (n = 8), 15 minutes after start of infusion, Baseline 75.9
  DBP: 73.0 mmHg
[2]; 10 μg/kg (n = 8), 15 minutes after start of infusion, Baseline 128.3
  SBP: 125.8 mmHg
[2]; 10 μg/kg (n = 8), 15 minutes after start of infusion, Baseline 142.5
  HR: 95.4^a bpm
[2]; 10 μg/kg (n = 8), 30 minutes after start of infusion (BP 35 minutes, footnote c), Baseline 75.9
  DBP: 71.3 mmHg
[2]; 10 μg/kg (n = 8), 30 minutes after start of infusion (BP 35 minutes, footnote c), Baseline 128.3
  SBP: 126.1 mmHg
[2]; 10 μg/kg (n = 8), 30 minutes after start of infusion, Baseline 142.5
  HR: 104.6^a bpm
[2]; 12 μg/kg (n = 4), 5 minutes after start of infusion, Baseline 80.5
  DBP: 82.5 mmHg
[2]; 12 μg/kg (n = 4), 5 minutes after start of infusion, Baseline 119.5
  SBP: 131.5 mmHg
[2]; 12 μg/kg (n = 4), 5 minutes after start of infusion, Baseline 120.0
  HR: 82.0^a bpm
[2]; 12 μg/kg (n = 4), 15 minutes after start of infusion, Baseline 80.5
  DBP: 78.5 mmHg
[2]; 12 μg/kg (n = 4), 15 minutes after start of infusion, Baseline 119.5
  SBP: 122.5 mmHg
[2]; 12 μg/kg (n = 4), 15 minutes after start of infusion, Baseline 120.0
  HR: 74.5^a bpm
[2]; 12 μg/kg (n = 4), 30 minutes after start of infusion (BP 35 minutes, footnote c), Baseline 80.5
  DBP: 68.5^a mmHg
[2]; 12 μg/kg (n = 4), 30 minutes after start of infusion (BP 35 minutes, footnote c), Baseline 119.5
  SBP: 118.5 mmHg
[2]; 12 μg/kg (n = 4), 30 minutes after start of infusion, Baseline 120.0
  HR: 88.0^a bpm
[2]; any treatment group, infusion period and up to 80 minutes post-infusion
  changes in systolic or diastolic blood pressures: no clinically significant changes
[3]
  Vdss: approached body weight
  duration of inhibitory effects on CLCrea: 1 to 2 h
  duration of inhibitory effects on CLNa: 3 to 4 h
  time at which dose-dependent secondary effects (rebounds) in UF and natriuresis were apparent: 5 to 10 h
[3]; 1 μg/kg vs 5 μg/kg
  CLnonren with increasing dose: appeared unchanged
  CLren reduced with increasing dose: 29%
  CLtot reduced with increasing dose: 25%
[3]; 30-minute i.v. infusion of 1 or 5 μg/kg
  eliminated unchanged in urine: About 42%
[3]; initially, dose-dependent inhibition of CLcrea, CLNa and to a lesser extent CLK
  effect on diuresis, natriuresis and kaliuresis: transiently reduced diuresis, natriuresis and kaliuresis
